This note sets out measurements from ChEMBL document CHEMBL3301361, “Experimental in vitro DMPK and physicochemical data on a set of publicly disclosed compounds”.

This data set is described as follows: physchem. The following applies: octan-1-ol/water, pH 7.4, LogD7.4.

By logD is commonly meant lipophilicity at a set pH, counting ionised and neutral species. High values mean a more lipophilic compound, low ones a more hydrophilic compound. On to `Cc1ccc(Cl)c(Nc2cc(Nc3ccc(OCC(O)CN(C)C)cc3)ncn2)c1` (stereo not given), for which the logD was determined as 2.16. Next, `CN(C)CC(O)COc1ccc(Nc2cc(N(CC#N)c3cc(Cl)ccc3Cl)ncn2)cc1` (stereo not given): 2.1; `Cc1ccc(F)c(Nc2ccnc(Nc3ccc(OCC(O)CN(C)C)cc3)n2)c1` (stereo not given): 2.1.

On to `CC(C)C(NC(=O)Cn1c(-c2cccnc2)ncc(NC(=O)OCc2ccccc2)c1=O)C(=O)C(F)(F)F` (stereo not given), for which the logD was determined as 2.15. For `CC(C)C(NC(=O)Cn1c(-c2ccc(F)cc2)ncc(NC(=O)OCc2ccncc2)c1=O)C(=O)C(F)(F)F` (stereo not given) the value was 2.22; for `COc1cc(OC)cc(-c2ccc(NC(=O)OCc3ccccc3)c(=O)n2CC(=O)NC(C(=O)C(F)(F)F)C(C)C)c1` (stereo not given), 2.26. `CC(C)C(NC(=O)Cn1c(-c2ccccc2)ccc(NC(=O)NCc2ccccn2)c1=O)C(=O)C(F)(F)F` (stereo not given) had a logD of 2.15. Next, `CC(C)C(NC(=O)Cn1c(-c2ccccc2)ncc(NC(=O)OCc2ccccc2)c1=O)C(=O)C(F)(F)F` (stereo not given): 2.12; `O=S(=O)(NCC(c1ccccc1)N1CCCCCC1)c1cccnc1` (stereo not given): 2.1; `Cc1cc2n[nH]c(=O)n2c2cc(-c3ccncc3)ccc12`: 2.29. Next, `Cc1ccc2[nH]c(C(=O)N3CCN(C)CC3)cc2c1`: 2.22; `NC(=O)c1cnc(N[C@H]2CCCNC2)c2cc(-c3ccc(F)c(F)c3)sc12`: 2.17. The molecule `CNC(=O)C1(N2CCCNC2=O)CCN(CC[C@H](CN(C)C(=O)c2c(OC)c(C#N)cc3ccccc23)c2ccc(Cl)c(Cl)c2)CC1` came in with a log distribution coefficient (logD) of 2.2. For the molecule `Cc1ccc(-n2[nH]c(=O)c3cccnc32)cc1`, the pH-dependent lipophilicity (logD) was found to be 2.1. For `CC1CCN(C(=O)c2scc3c2OCCO3)CC1` the value was 2.26. Next, `Cc1nc2nc(NC(=O)c3ccc(F)cc3)nn2c(O)c1Cc1ccccc1`: 2.2; `O=C(COc1ccccc1O)NC1CCCC1`: 2.31. The molecule `CC(O)(C(=O)Nc1ccc(S(=O)(=O)c2cccnc2)cc1)C(F)(F)F` (stereo not given) returned a log distribution coefficient (logD) of 2.08. Next, `Cc1ccccc1C(=O)N1CCN(c2ccccn2)CC1`: 2.18.

Regarding `COc1cc(-c2nnc(S)n2-c2cccc(C(F)(F)F)c2)cc(OC)c1OC`, the logD was 2.27.

Turning to `O=c1c2ccccc2nc2ccccn12`, the pH-dependent lipophilicity (logD) came to 2.1. For `Cc1cc(Nc2ccccc2)n(CCC#N)n1` the value was 2.3.

On to `c1cc2c(cc1-c1cnc3n1CCC3)OCCO2`, for which the log distribution coefficient (logD) came to 2.33. Next, `Cc1ccc(S(=O)(=O)N2CCN(C(=O)c3ccco3)CC2)cc1`: 2.17; `CC1(C(=O)NC2CCCCC2)CCC(=O)N1Cc1cccs1` (stereo not given): 2.15; `Cc1ccc2c(N)c(C#N)sc2n1`: 2.23. Take `COc1cccc2[nH]ncc12`: the logD amounted to 2.1. For `CC1(C)C(=O)Nc2ccccc21` the value was 2.3. For `CCCc1c(OCc2ccc(C(=O)O)cc2)ccc(C(C)=O)c1O` the value was 2.1.

`CCCc1c(OCc2ccc(C(=O)O)c(Br)c2)ccc(C(C)=O)c1O` displayed a log distribution coefficient (logD) of 2.3.

In turn, `O=C1CCOc2nc(COc3ccccc3)ccc21` gave a log distribution coefficient (logD) of 2.3.

The molecule `CC[C@H](NC(=O)c1c([S+](C)[O-])c(-c2ccccc2)nc2ccccc12)c1cccnc1` (stereo not given in full) displayed a logD of 2.2. For `Cc1ccc(CO)cc1N(C)c1ccnc(Nc2cc(C(=O)N3CCOCC3)cc(N3CCOCC3)c2)n1` the value was 2.2; for `COc1cc(F)ccc1-c1cncc(CNC2CCC2)n1`, 2.23. `COc1cc(F)ccc1-c1cncc(CNC2CCCC2)c1` gave a log distribution coefficient (logD) of 2.29. Next, `COc1cc(F)ccc1-c1cccc(CNC2CCCC2)c1`: 2.29; `Cc1noc(C)c1CCC1CCN(S(=O)(=O)CC2(N(O)C=O)CCC(F)(F)CC2)CC1`: 2.1; `O=c1[nH]c2c(O)ccc([C@@H](O)CNCCCSCCOCCc3ccccc3)c2s1`: 2.3. Next, `O=c1[nH]c2c(O)ccc([C@@H](O)CNCCCOCCOCCc3cccc4ccccc34)c2s1`: 2.28. `COc1cc(N2CCN(C(C)=O)CC2)ccc1Nc1ncc(Cl)c(-c2cnc3cc(C#N)ccn23)n1` gave a logD of 2.3. `CCC(c1nc2ccsc2c(=O)n1Cc1ccc(Cl)cc1)N(CCCN)C(=O)c1ccc(C)cc1` (stereo not given) registered a log distribution coefficient (logD) of 2.32.

In the case of `CCC(c1nc2ccsc2c(=O)n1Cc1ccc(OC)cc1)N(CCCN)C(=O)c1ccc(C)cc1` (stereo not given), the log distribution coefficient (logD) turned out to be 2.15. For `NC(=O)Nc1cc(-c2cccc(O)c2)sc1C(N)=O` the value was 2.21. Next, `Cc1ccc(/C=C(\C#N)C(N)=O)cc1`: 2.09.

`NC(=O)c1sc(-c2ccsc2)cc1N` displayed a log distribution coefficient (logD) of 2.23. Molecule `O=c1[nH]c2c(O)ccc([C@@H](O)CNCCc3ccc(CNCCc4c(Cl)cccc4Cl)cc3)c2s1` displayed a logD of 2.3. For the molecule `Cc1ccccc1Cn1ccn2c(=O)cc(N3CCOCC3)nc12`, the pH-dependent lipophilicity (logD) was 2.3. `Nc1cc2n[nH]c(=O)n2c2cc(-c3ccc[nH]3)ccc12` yielded a pH-dependent lipophilicity (logD) of 2.3. Next, `O=c1[nH]nc2cc(CO)c3ccc(-c4ccc[nH]4)cc3n12`: 2.19. Next, `CCN1CCOC(C(=O)N2CCN(C(=O)Nc3ccc(Cl)c(Cl)c3)CC2)C1` (stereo not given): 2.1; `N#Cc1cnn2c(N)cc(-c3cccs3)nc12`: 2.3.

In the case of `COc1cc2c(Nc3ncc(NC(=O)c4ccccc4)cn3)ncnc2cc1OCCCN1CCOCC1`, the logD was 2.32. Next, `NC(=O)Nc1sc(-c2cc(F)cc(F)c2)cc1C(=O)N[C@H]1CCCNC1`: 2.18. Next, `CCN(CCO)CCCOc1cc2ncnc(Nc3cc(CC(=O)Nc4cccc(F)c4)[nH]n3)c2cc1OC`: 2.12. Next, `CCCSc1ncccc1C(=O)N[C@@H]1[C@@H]2CC3C[C@H]1C[C@@](O)(C3)C2`: 2.27. For `CCCN(C)c1nc(N2CCC[C@@H](CC(=O)O)C2)ccc1C(=O)NC1CCCCC1`, the logD amounted to 2.28. For `O=C(c1ccc(-c2nc(=O)o[nH]2)cc1)N1CCC(N2CCC(Oc3ccc(Cl)c(Cl)c3)CC2)CC1` the value was 2.24.

With `COCCNS(=O)(=O)c1ccc(-c2cnc(N)c(C(=O)Nc3cccnc3)n2)cc1`, the logD worked out at 2.26. Next, `COc1cc(N2CCCN(C)CC2)c2[nH]c(C(=O)Nc3ccc(N4CCOCC4)cc3)cc(=O)c2c1`: 2.1; `CC(c1cc2ccccc2o1)n1[nH]c(=O)c2[nH]c3cc(Cl)ccc3c(=O)c2c1=O` (stereo not given): 2.1; `NC(=O)C(NC(=O)C1(N)CCN(c2ncnc3[nH]ccc23)CC1)c1ccc(Cl)cc1` (stereo not given): 2.2. Next, `NC1(C(=O)NC(CS(N)(=O)=O)c2ccc(Cl)cc2)CCN(c2ncnc3[nH]ccc23)CC1` (stereo not given): 2.2; `CS(=O)(=O)NCC(NC(=O)C1(N)CCN(c2ncnc3[nH]ccc23)CC1)c1ccc(Cl)cc1` (stereo not given): 2.1; `CS(=O)(=O)NCCC(NC(=O)C1(N)CCN(c2ncnc3[nH]ccc23)CC1)c1ccc(Cl)cc1` (stereo not given): 2.2.

The molecule `CC(NC(=O)C1(N)CCN(c2ncnc3[nH]ccc23)CC1)c1ccccc1` (stereo not given) displayed a pH-dependent lipophilicity (logD) of 2.17. For `Cc1cn([C@H]2CCCN(S(=O)(=O)c3ccc(O)c(Oc4cccc(C(F)(F)F)c4)c3)C2)c(=O)[nH]c1=O`, the pH-dependent lipophilicity (logD) came out at 2.27. Next, `COc1cc2ncnc(Nc3ccncc3)c2cc1OC`: 2.22; `C[C@@H](NC(=O)[C@H]1CCCCN1)c1ccc(Nc2ncc3cc(-c4ccncc4)ccc3n2)cc1`: 2.15; `Cn1c(N)nc(CCc2ccc3cc[nH]c3c2)cc1=O`: 2.1.

Molecule `Fc1ccc2cn[nH]c2c1` registered a logD of 2.3. In the case of `COc1cc(OC2CCN(C)CC2)c2c(Nc3cccc4c3OCCO4)ncnc2c1`, the logD is 2.26. For `O=C1c2ccc(O)cc2C(=O)N1c1ccccc1` the value was 2.3; for `CC(C)C(NC(=O)Cn1c(-c2ccccc2)ccc(NC(=O)NCc2ccncc2)c1=O)C(=O)C(F)(F)F` (stereo not given), 2.16. For `CC(C)C(NC(=O)Cn1c(-c2ccccc2)ccc(NS(=O)(=O)c2ccccc2)c1=O)C(=O)C(F)(F)F` (stereo not given) the value was 2.26. Next, `C[C@@](O)(C(=O)Nc1ccc(S(=O)(=O)NCCCO)cc1Cl)C(F)(F)F`: 2.1; `CN(C)CC(O)COc1ccc(Nc2cc(N(CCC#N)c3cc(Cl)ccc3Cl)ncn2)cc1` (stereo not given): 2.1; `O=C(c1ccc(CCC(COc2ccc(-c3cccc([N+](=O)[O-])c3)cc2)N2C(=O)CCCC2=O)cc1)N1CCCC1` (stereo not given): 2.31. Molecule `NC(=O)c1cc(O)cc2nc(-c3ccc(O)cc3)oc12` had a log distribution coefficient (logD) of 2.3. As for `O=C(Nc1ccccn1)c1ccccc1`, the logD came out at 2.2. For `CN1Cc2c(N)cccc2[C@@H](c2ccccc2)C1` the value was 2.11. For `Nc1ccc2c(c1)C(=O)C(=O)c1ccccc1-2` the value was 2.23; for `NC(N)=Nc1cc(Cl)nc(-c2ccccc2)n1`, 2.16; for `CC(C)[C@@H](CO)NS(=O)(=O)c1ccc(Cl)s1`, 2.3. For `O=C1c2ccc(O)cc2C(=O)N1c1ccc(O)cc1F` the value was 2.1; for `Cc1ncc(-c2nc(Nc3ccc(C(=O)NCCN(C)C)c(F)c3)ncc2F)n1C(C)C`, 2.26. For the molecule `CS(=O)(=O)Nc1cc(Nc2nccc(Nc3c(Cl)ccc4c3OCO4)n2)cc(C(N)=O)c1`, the logD is 2.28. Next, `Nc1cc(-c2ccccc2)nc2ccccc12`: 2.2; `Cc1ncc(-c2nc(Nc3ccc(C(=O)NC4CCN(C)CC4)cc3)ncc2F)n1C(C)C`: 2.13; `Cn1cc(-c2ccc(O)cc2)c(=O)c2c(O)cc(O)cc21`: 2.2.

The molecule `CN1CCN(C(=O)c2cc(-c3ccccc3)sc2NC(N)=O)CC1` had a logD of 2.17.

Regarding `c1ccc(-c2cc(NCCCCCCCCNc3cc(-c4ccccc4)nc4ccccc34)c3ccccc3n2)cc1`, the logD was 2.27. For `COc1cc(OC)cc(-c2cc3cnc(N)nc3nc2N)c1` the value was 2.14; for `CC(C)(C(N)=O)C(=O)NCCCNc1nc(Nc2cccc(NC(=O)N3CCCC3)c2)ncc1Br`, 2.32. For `C[C@@](O)(C(=O)Nc1ccc(S(=O)(=O)NCCN2CCOCC2)cc1Cl)C(F)(F)F` the value was 2.14.

`CC(O)(C(=O)Nc1ccc(S(=O)(=O)c2ccncc2)cc1)C(F)(F)F` (stereo not given) registered a logD of 2.15.
